Data taken from ChEMBL document CHEMBL5335774 (Eur J Med Chem, 2023).

Tests used:
Replicase polyprotein 1a = Replicase polyprotein 1a (Severe acute respiratory syndrome-related coronavirus, UniProt P0C6U8)
[1] = target: T1, Replicase polyprotein 1ab (Severe acute respiratory syndrome coronavirus 2, UniProt P0DTD1)
[2] = target: T1, Replicase polyprotein 1ab; remark: listed apart in the source
[3] = target: T1, Replicase polyprotein 1ab; remark: listed apart in the source
Procathepsin L = Procathepsin L (Homo sapiens, UniProt P07711)
Chain of Procathepsin L (P07711 whole entry): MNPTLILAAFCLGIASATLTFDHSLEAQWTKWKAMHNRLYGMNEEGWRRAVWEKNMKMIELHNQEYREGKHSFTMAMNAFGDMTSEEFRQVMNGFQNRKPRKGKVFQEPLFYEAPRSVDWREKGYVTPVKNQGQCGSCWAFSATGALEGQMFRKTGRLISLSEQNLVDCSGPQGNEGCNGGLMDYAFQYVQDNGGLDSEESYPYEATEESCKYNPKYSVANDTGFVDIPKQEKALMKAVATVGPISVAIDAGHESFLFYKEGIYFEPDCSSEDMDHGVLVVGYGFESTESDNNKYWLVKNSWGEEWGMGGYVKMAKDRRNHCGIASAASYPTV

SARS-CoV-2 = experiment: microbe, parasite or virus in culture; settings: Severe acute respiratory syndrome coronavirus 2, Vero, 16 h
Vero = experiment: Cytotoxicity against green monkey Vero cells; format: toxicity, cell-based; settings: chlorocebus sabaeus
[4] = target: Replicase polyprotein 1ab (Severe acute respiratory syndrome coronavirus 2) (UniProt P0DTD1); settings: dose 40.0 µM, time 30.0 min
[5] = target: Replicase polyprotein 1ab (Severe acute respiratory syndrome coronavirus 2) (UniProt P0DTD1); settings: time 70.0 min

Cc1cccc2nc(CSC(=S)NCc3cccnc3)cn12
IC50 (Replicase polyprotein 1a): 0.383 µM
IC50 [1]: 0.008 µM
IC50 ([2]; read-out: IC50): 1.46 µM
IC50 ([2]; read-out: pIC50 (converted)): 1.41 µM
IC50 ([3]; read-out: IC50): 0.021 µM
IC50 (Procathepsin L; read-out: IC50): 122 µM
IC50 (SARS-CoV-2): 1.06 µM
Activity (Vero): Non-Toxic
ΔTm [4]: 14.2 °C
inhibition [5]: 80%

Cc1cccc2nc(CNC(=S)NCc3cccnc3)cn12
pIC50 [2]: < 4
IC50 ([2]; read-out: IC50): > 100 µM
IC50 ([3]; read-out: IC50): 35 µM

S=C(NCc1cccnc1)SCc1ccccc1
IC50 ([2]; read-out: IC50): 9.36 µM
IC50 ([3]; read-out: IC50): 0.023 µM

CCSC(=S)NCc1cccnc1
IC50 ([2]; read-out: IC50): 22.4 µM
IC50 ([3]; read-out: IC50): 0.178 µM

S=C([S-])NCc1cccnc1.[K+]
IC50 (Replicase polyprotein 1a): 0.165 µM
IC50 ([2]; read-out: IC50): 1.36 µM
IC50 ([3]; read-out: pIC50 (converted)): 0.0269 µM
IC50 (Procathepsin L; read-out: IC50): 42.8 µM
Activity (Vero): Toxic

CC(C)C[C@H](NC(=O)OCc1ccccc1)C(=O)N[C@@H](CC1CCNC1=O)C(O)S(=O)(=O)O (some centres not stated)
IC50 (Procathepsin L; read-out: pIC50 (converted)): 0.000692 µM

S=C(NCc1cccnc1)OCc1ccccc1
pIC50 [2]: < 4
IC50 ([2]; read-out: IC50): > 100 µM
IC50 ([3]; read-out: IC50): > 100 µM
IC50 ([3]; read-out: pIC50 (converted)): > 100 µM
